Earlier results in PMC5766630, “Non-estrogenic Xanthohumol Derivatives Mitigate Insulin Resistance and Cognitive Impairment in High-Fat Diet-induced Obese Mice” (Scientific Reports, 2018).

System: quinone reductase
Design: method as in PMID 10737704
Details: cited from earlier work

SMILES: COc1cc(O)c(CC=C(C)C)c(O)c1C(=O)/C=C/c1ccc(O)cc1 [XN, 3′-[3,3-dimethylallyl]-2′,4′,4-trihydroxy-6′-methoxychalcone]
- Induction of quinone reductase: potent inducer
